The conditions of experiment [1]: calu3.
Experiment [2] deals with SARS-CoV-2 (SARS-CoV-2). To be noted: helaace2.
Experiment [3] concerns SARS-CoV-2 (SARS-CoV-2). The conditions noted are these: vero6.
For experiment [4] the following is noted: helaace2.
The conditions of experiment [5]: a549.

Data on seven compounds can be found in the COVID Moonshot data (paper PMC7615835).

SMILES strings stand for the structures. “And” between values parts separate entries of the source, which are not always exact repeats. Identical values can stand only once.

In turn, `Cc1ccncc1NC(=O)Cc1cc(Cl)cc(OC2CC(=O)N2)c1` (configuration not stated) came in with a CC50 in experiment [1] of 63500 nM. For `CCC(CC)COC(=O)[C@H](C)NP(=O)(OC[C@H]1O[C@@](C#N)(c2ccc3c(N)ncnn23)[C@H](O)[C@@H]1O)Oc1ccccc1` (stereo in doubt), in the experiment on SARS-CoV-2 (SARS-CoV-2) [2], the IC50 amounted to 240 nM. Regarding `NC(=O)CN1Cc2ccc(Cl)cc2C(C(=O)Nc2cncc3ccccc23)C1` (configuration not stated), in the experiment on SARS-CoV-2 (SARS-CoV-2) [3], the IC90 is < 40 nM.

Consider `O=C(Nc1cncc2ccccc12)C1CN(S(=O)(=O)CC2CNC2)Cc2ccc(Cl)cc21` (configuration not stated), for which the CC50 in experiment [4] was > 20000 nM. In turn, `CNC(=O)c1cc2c(NC(=O)C3CCOc4ccc(Cl)cc43)cncc2s1` (configuration not stated) returned an IC50 with SARS-CoV-2 (SARS-CoV-2) [3] of 568 nM. In the case of `O=C(Nc1cncc2ccccc12)C1CCNc2cc(Cl)c(Cl)cc21` (configuration not stated), in experiment [5], the CC50 was < 22.9 nM. `O=C1NCC(C(=O)Nc2cncc3ccccc23)c2cc(Cl)ccc21` (configuration not stated): in the experiment on SARS-CoV-2 (SARS-CoV-2) [3], the IC90 was > 5000 nM and 2280 nM.

For orientation: IC50 means the concentration that gives 50% inhibition. Low values mean greater potency, high ones weaker potency. Usually IC90 stands for the point of the concentration-response curve where the effect stands at 90%. A low value points to greater potency.
